Data: PubChem BioAssay (NCI)
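Method: 48-hour compound exposure of cells in 96-well plates, five concentrations, linear interpolation of endpoints. Abbreviation: GI50, concentration required for 50% inhibition of growth. At the TGI there is no net growth.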

Tested on: HT29 colon
Experiment: NCI tumour cell line growth inhibition, 48 h

`C=CCC1(C)CCCCC1(O)CS(=O)c1ccccc1` (centres undefined) and `CC12CCC(=O)N1c1cccnc1N2` (centres undefined) cannot be ordered by TGI: greater than 100 µM for the first, greater than 100 µM for the second.

`C1COCCSC2=C(SCCO1)SC(=C1SC3=C(SCCOCCOCCS3)S1)S2` and `COc1cc2c(cc1OC)C1Cc3cc(OC)c(OC)cc3N1CC2` (centres undefined) cannot be ordered by TGI: greater than 100 µM for the first, greater than 100 µM for the second.

`COc1cc(/C=N\O[Si](C)(C)C(C)(C)C)ccc1O[Si](C)(C)C(C)(C)C` and `CCOC(=O)C1=C(Nc2ccc(Br)cc2)OCC1=O` cannot be ordered by TGI: greater than 100 µM for the first, greater than 100 µM for the second.

Compared with `CCOc1ccc(N=Cc2c3ccccc3nc3ccccc23)cc1`, `C1=NC(N(Cc2ccccc2)Cc2ccccc2)N(Cc2ccccc2)N1` (centres undefined) is lower in TGI: greater than 100 µM for the first, 30.9 µM for the second.

First: Nc1ccc(C2=N/C(=C\c3cccc(N)c3)C(=O)O2)cc1
Second: Cc1cc(NCCCCNc2ccnc3cc(Cl)ccc23)nc(Nc2ccc(C(=O)N3CCCCC3)cc2)n1
The TGI of the first is higher: greater than 100 µM for the first, 4.62 µM for the second.

`CC(=O)[CH-]C(=O)c1ccccc1.CC(=O)[CH-]C(=O)c1ccccc1.O=S(=O)([O-])c1cc([O-])c2c([O-])cc(S(=O)(=O)[O-])cc2c1.[Na+].[Ti+4]` and `NCCN.O=C([O-])[O-].O=C([O-])[O-].[Co+3].[K+]` cannot be ordered by TGI: greater than 100 µM for the first, greater than 100 µM for the second.

Going from `CC(=O)[CH-]C(=O)c1ccccc1.CC(=O)[CH-]C(=O)c1ccccc1.O=S(=O)([O-])c1cc([O-])c2c([O-])cc(S(=O)(=O)[O-])cc2c1.[Na+].[Ti+4]` to `Cc1cc(NCCCCNc2ccnc3cc(Cl)ccc23)nc(Nc2ccc(C(=O)N3CCCCC3)cc2)n1`, the GI50 falls from greater than 100 µM to 1.78 µM.

`NCCN.O=C([O-])[O-].O=C([O-])[O-].[Co+3].[K+]` was tested, and the GI50 was greater than 100 µM.

Tested on: MDA-MB-435
Experiment: NCI tumour cell line growth inhibition, 48 h

Molecule `Cc1cc(NCCCCNc2ccnc3cc(Cl)ccc23)nc(Nc2ccc(C(=O)N3CCCCC3)cc2)n1` has a GI50 of 1.82 µM.

`Cc1cc(NCCCCNc2ccnc3cc(Cl)ccc23)nc(Nc2ccc(C(=O)N3CCCCC3)cc2)n1` was tested, and the TGI was 3.42 µM.

Tested on: KM12 colon
Experiment: NCI tumour cell line growth inhibition, 48 h

`CCc1cccc(C)c1NC(=O)CC1C(=O)Nc2ccccc2S1=O` (centres undefined) and `Cc1ccc2c(c1-c1ccccc1)C(=O)OC2` cannot be ordered by TGI: greater than 100 µM for the first, greater than 100 µM for the second.

`Cc1ccc(N2C(=O)N(c3ccc(C)cc3)C3(SC=NN3C)C2=O)cc1` (centres undefined) and `O=C1c2ccc3c4ccccc4n(-c4ccccc4)c3c2C(=O)N1c1ccc(Cl)cc1` cannot be ordered by TGI: greater than 100 µM for the first, greater than 100 µM for the second.

`CCC[CH2][Sn]1([CH2]CCC)[O]CC(COc2c(Cl)cc(Cl)cc2Cl)[O]1` (centres undefined) and `Cc1cc(NCCCCNc2ccnc3cc(Cl)ccc23)nc(Nc2ccc(C(=O)N3CCCCC3)cc2)n1` are within 1.5-fold of each other in TGI: 3.54 µM for the first, 4.21 µM for the second.

`NC(CCc1ncc(C(=O)O)s1)C(=O)O` (centres undefined) and `NCCN.O=C([O-])[O-].O=C([O-])[O-].[Co+3].[K+]` cannot be ordered by TGI: greater than 100 µM for the first, greater than 100 µM for the second.

Compared with `CSc1ccc2c(cc1=O)[C@@H](NC(=O)c1cc(O)c(O)c(O)c1)CCc1cc(O)c(O)c(O)c1-2`, `Cc1c(Cl)cccc1NC(=O)c1cccc([N+](=O)[O-])c1O` is higher in TGI: 46.8 µM for the first, greater than 68.5 µM for the second.

`COc1cc(-c2nnc3n2NC=C(C(=O)O)S3)cc(OC)c1OC` and `COc1cc2c(cc1OC)C1Cc3cc(OC)c(OC)cc3N1CC2` (centres undefined) cannot be ordered by TGI: greater than 100 µM for the first, greater than 100 µM for the second.

`C[P+](C)(C)c1ccccc1` and `CC1CCC(C(C)(C)c2ccccc2)C(=O)C1` (centres undefined) cannot be ordered by TGI: greater than 100 µM for the first, greater than 100 µM for the second.

`O=C1c2ccccc2C(=O)N1C/C=N/NS(=O)(=O)c1ccc(Br)cc1` and `Nc1ccc(C2=N/C(=C\c3cccc(N)c3)C(=O)O2)cc1` cannot be ordered by TGI: greater than 100 µM for the first, greater than 100 µM for the second.

`COc1ccc(-c2noc(N)c2-c2cc(OC)c3c(c2)OCO3)cc1` and `N#Cc1c(-c2ccco2)cc(-c2ccc(N)cc2)[nH]c1=O` cannot be ordered by TGI: greater than 100 µM for the first, greater than 100 µM for the second.

Going from `NC(=O)c1cn(Cc2ccccc2)c(=O)n1Cc1ccccc1` to `C1=NC(N(Cc2ccccc2)Cc2ccccc2)N(Cc2ccccc2)N1` (centres undefined), the TGI falls from greater than 100 µM to 31.1 µM.

First: CCOC(=O)C(C)(c1c(C)[nH]c2ccccc12)c1c(C)[nH]c2ccccc12
Second: CCOc1ccc(N=Cc2c3ccccc3nc3ccccc23)cc1
The TGI of the first is 2.6-fold lower: 33.2 µM for the first, 84.7 µM for the second.

`CC1COS(=O)O1` (centres undefined) and `CCOC(=O)C1=C(Nc2ccc(Br)cc2)OCC1=O` cannot be ordered by TGI: greater than 100 µM for the first, greater than 100 µM for the second.

`O=C1CC2CCN(C(=O)c3ccccc3)CC2CCN1` (centres undefined) and `C=CCC1(C)CCCCC1(O)CS(=O)c1ccccc1` (centres undefined) cannot be ordered by TGI: greater than 100 µM for the first, greater than 100 µM for the second.

`O=C1C=CC(=CC=C2C=CN(CCCCCCCCCCC(=O)NCCCCCCCCCCCC(=O)O)C=C2)C=C1` and `CC(=O)[CH-]C(=O)c1ccccc1.CC(=O)[CH-]C(=O)c1ccccc1.O=S(=O)([O-])c1cc([O-])c2c([O-])cc(S(=O)(=O)[O-])cc2c1.[Na+].[Ti+4]` cannot be ordered by TGI: greater than 100 µM for the first, greater than 100 µM for the second.

`C1COCCSC2=C(SCCO1)SC(=C1SC3=C(SCCOCCOCCS3)S1)S2` and `COc1cc(/C=N\O[Si](C)(C)C(C)(C)C)ccc1O[Si](C)(C)C(C)(C)C` cannot be ordered by TGI: greater than 100 µM for the first, greater than 100 µM for the second.

`CC12CCC(=O)N1c1cccnc1N2` (centres undefined) and `O=C1C2[C@@H](C(=O)N1c1ccc(Br)cc1)C13C(=CC2([N+](=O)[O-])[C@@H]2C(=O)N(c4ccc(Br)cc4)C(=O)[C@@H]21)c1ccccc1N3c1ccccc1` (some centres undefined) cannot be ordered by TGI: greater than 100 µM for the first, greater than 100 µM for the second.

`CCC[CH2][Sn]1([CH2]CCC)[O]CC(COc2c(Cl)cc(Cl)cc2Cl)[O]1` (centres undefined) and `Cc1cc(NCCCCNc2ccnc3cc(Cl)ccc23)nc(Nc2ccc(C(=O)N3CCCCC3)cc2)n1` are within 1.5-fold of each other in GI50: 1.8 µM for the first, 1.91 µM for the second.

First: COc1ccc(-c2noc(N)c2-c2cc(OC)c3c(c2)OCO3)cc1
Second: CC(=O)[CH-]C(=O)c1ccccc1.CC(=O)[CH-]C(=O)c1ccccc1.O=S(=O)([O-])c1cc([O-])c2c([O-])cc(S(=O)(=O)[O-])cc2c1.[Na+].[Ti+4]
The GI50 of the first is 15-fold lower: 1.97 µM for the first, 30.2 µM for the second.

With `NCCN.O=C([O-])[O-].O=C([O-])[O-].[Co+3].[K+]` the GI50 was greater than 100 µM.

Tested on: MALME-3M melanoma
Experiment: NCI tumour cell line growth inhibition, 48 h

`CCc1cccc(C)c1NC(=O)CC1C(=O)Nc2ccccc2S1=O` (centres undefined) and `Cc1ccc2c(c1-c1ccccc1)C(=O)OC2` cannot be ordered by TGI: greater than 100 µM for the first, greater than 100 µM for the second.

`Cc1ccc(N2C(=O)N(c3ccc(C)cc3)C3(SC=NN3C)C2=O)cc1` (centres undefined) and `O=C1c2ccc3c4ccccc4n(-c4ccccc4)c3c2C(=O)N1c1ccc(Cl)cc1` cannot be ordered by TGI: greater than 100 µM for the first, greater than 100 µM for the second.

First: CCC[CH2][Sn]1([CH2]CCC)[O]CC(COc2c(Cl)cc(Cl)cc2Cl)[O]1 (centres undefined)
Second: COc1ccc(-c2noc(N)c2-c2cc(OC)c3c(c2)OCO3)cc1
The TGI of the first is lower: 2.34 µM for the first, greater than 100 µM for the second.

`NC(CCc1ncc(C(=O)O)s1)C(=O)O` (centres undefined) and `O=C1CC2CCN(C(=O)c3ccccc3)CC2CCN1` (centres undefined) cannot be ordered by TGI: greater than 100 µM for the first, greater than 100 µM for the second.

First: CSc1ccc2c(cc1=O)[C@@H](NC(=O)c1cc(O)c(O)c(O)c1)CCc1cc(O)c(O)c(O)c1-2
Second: Cc1c(Cl)cccc1NC(=O)c1cccc([N+](=O)[O-])c1O
The TGI of the first is 2.4-fold higher: 93.3 µM for the first, 38.7 µM for the second.

Compared with `COc1cc(-c2nnc3n2NC=C(C(=O)O)S3)cc(OC)c1OC`, `COc1cc2c(cc1OC)C1Cc3cc(OC)c(OC)cc3N1CC2` (centres undefined) is lower in TGI: greater than 100 µM for the first, 54.4 µM for the second.

`C[P+](C)(C)c1ccccc1` and `CC1CCC(C(C)(C)c2ccccc2)C(=O)C1` (centres undefined) cannot be ordered by TGI: greater than 100 µM for the first, greater than 100 µM for the second.

`O=C1c2ccccc2C(=O)N1C/C=N/NS(=O)(=O)c1ccc(Br)cc1` and `N#Cc1c(-c2ccco2)cc(-c2ccc(N)cc2)[nH]c1=O` cannot be ordered by TGI: greater than 100 µM for the first, greater than 100 µM for the second.

First: CCOC(=O)C(C)(c1c(C)[nH]c2ccccc12)c1c(C)[nH]c2ccccc12
Second: C=CCC1(C)CCCCC1(O)CS(=O)c1ccccc1 (centres undefined)
The TGI of the first is lower: 43 µM for the first, greater than 100 µM for the second.

`CC1COS(=O)O1` (centres undefined) and `CC12CCC(=O)N1c1cccnc1N2` (centres undefined) cannot be ordered by TGI: greater than 100 µM for the first, greater than 100 µM for the second.

`O=C1C=CC(=CC=C2C=CN(CCCCCCCCCCC(=O)NCCCCCCCCCCCC(=O)O)C=C2)C=C1` and `COc1cc(/C=N\O[Si](C)(C)C(C)(C)C)ccc1O[Si](C)(C)C(C)(C)C` cannot be ordered by TGI: greater than 100 µM for the first, greater than 100 µM for the second.

With `C1COCCSC2=C(SCCO1)SC(=C1SC3=C(SCCOCCOCCS3)S1)S2` the TGI was greater than 100 µM.

Compared with `CCC[CH2][Sn]1([CH2]CCC)[O]CC(COc2c(Cl)cc(Cl)cc2Cl)[O]1` (centres undefined), `COc1ccc(-c2noc(N)c2-c2cc(OC)c3c(c2)OCO3)cc1` is 9.1-fold higher in GI50: 1.06 µM for the first, 9.66 µM for the second.
